Data from ChEMBL document CHEMBL1144797, “Synthesis and antimicrobial activity of 7 alpha-amino-23,24-bisnor-5 alpha-cholan-22-ol derivatives” (Bioorg Med Chem Lett, 2008).
≈ marks a conversion by molar mass, not a printed value.

Assays:
Staphylococcus aureus = test: Antimicrobial activity against Staphylococcus aureus 503; type: functional
Escherichia coli = test: Antimicrobial activity against Escherichia coli DC2; type: functional
Enterobacter cloacae = test: Antimicrobial activity against Enterobacter cloacae 1321E; type: functional
Streptococcus pyogenes [1] = test: Antimicrobial activity against Streptococcus pyogenes 77A; type: functional
Streptococcus pyogenes [2] = test: Antimicrobial activity against Streptococcus pyogenes 308A; type: functional
Pseudomonas aeruginosa [3] = test: Antimicrobial activity against Pseudomonas aeruginosa 1771M; type: functional
Pseudomonas aeruginosa [4] = test: Antimicrobial activity against Pseudomonas aeruginosa 9027; type: functional
Salmonella typhimurium = test: Antimicrobial activity against Salmonella Typhimurium; type: functional, Salmonella enterica subsp. enterica serovar Typhimurium; conditions: Salmonella enterica
[5] = Hemolytic activity against RBC at 100 ug/ml; type: ADME, cell-based; conditions: erythrocyte

C[C@H](COS(=O)(=O)O)[C@H]1CC[C@H]2[C@@H]3[C@H](N)C[C@H]4C[C@H](NCCCNCCCCN)CC[C@]4(C)[C@H]3CC[C@]12C.Cl.Cl.Cl.Cl
MIC (Staphylococcus aureus): 6.3 µg/mL | MIC (Escherichia coli): 25 µg/mL | MIC (Enterobacter cloacae): > 100 µg/mL | MIC (Streptococcus pyogenes [1]): 12.5 µg/mL | MIC (Streptococcus pyogenes [2]): 6.3 µg/mL | MIC (Pseudomonas aeruginosa [3]): 50 µg/mL | MIC (Pseudomonas aeruginosa [4]): 12.5 µg/mL | MIC (Salmonella typhimurium): > 100 µg/mL

C[C@H](COS(=O)(=O)O)[C@H]1CC[C@H]2[C@@H]3[C@H](N)C[C@H]4C[C@@H](NCCCNCCCCN)CC[C@]4(C)[C@H]3CC[C@]12C.Cl.Cl.Cl.Cl
MIC (Staphylococcus aureus): 25 µg/mL | MIC (Escherichia coli): > 100 µg/mL | MIC (Enterobacter cloacae): > 100 µg/mL | MIC (Streptococcus pyogenes [1]): 50 µg/mL | MIC (Streptococcus pyogenes [2]): 25 µg/mL | MIC (Pseudomonas aeruginosa [3]): > 100 µg/mL | MIC (Pseudomonas aeruginosa [4]): > 100 µg/mL | MIC (Salmonella typhimurium): > 100 µg/mL

C[C@H](CO)[C@H]1CC[C@H]2[C@@H]3[C@H](N)C[C@H]4C[C@H](NCCCNCCCCN)CC[C@]4(C)[C@H]3CC[C@]12C.Cl.Cl.Cl.Cl
MIC (Staphylococcus aureus): 12.5 µg/mL | MIC (Escherichia coli): > 100 µg/mL | MIC (Enterobacter cloacae): > 100 µg/mL | MIC (Streptococcus pyogenes [1]): 25 µg/mL | MIC (Streptococcus pyogenes [2]): 12.5 µg/mL | MIC (Pseudomonas aeruginosa [3]): > 100 µg/mL | MIC (Pseudomonas aeruginosa [4]): 25 µg/mL | MIC (Salmonella typhimurium): > 100 µg/mL

C[C@H](CO)[C@H]1CC[C@H]2[C@@H]3[C@H](N)C[C@H]4C[C@@H](NCCCNCCCCN)CC[C@]4(C)[C@H]3CC[C@]12C.Cl.Cl.Cl.Cl
MIC (Staphylococcus aureus): 12.5 µg/mL | MIC (Escherichia coli): 50 µg/mL | MIC (Enterobacter cloacae): > 100 µg/mL | MIC (Streptococcus pyogenes [1]): 25 µg/mL | MIC (Streptococcus pyogenes [2]): 12.5 µg/mL | MIC (Pseudomonas aeruginosa [3]): > 100 µg/mL | MIC (Pseudomonas aeruginosa [4]): 25 µg/mL | MIC (Salmonella typhimurium): > 100 µg/mL

CC(C)[C@H]1CC[C@H]2[C@@H]3[C@H](O)C[C@H]4CC(N)CC[C@]4(C)[C@H]3CC[C@]12C (stereo not given in full)
MIC (Staphylococcus aureus): 100 µg/mL (≈ 300 µM) | MIC (Escherichia coli): 100 µg/mL (≈ 300 µM) | MIC (Enterobacter cloacae): 100 µg/mL (≈ 300 µM) | MIC (Streptococcus pyogenes [1]): 100 µg/mL (≈ 300 µM) | MIC (Streptococcus pyogenes [2]): 100 µg/mL (≈ 300 µM) | MIC (Pseudomonas aeruginosa [3]): 100 µg/mL (≈ 300 µM) | MIC (Pseudomonas aeruginosa [4]): 100 µg/mL (≈ 300 µM) | MIC (Salmonella typhimurium): 100 µg/mL (≈ 300 µM)

C[C@H](CO)[C@H]1CC[C@H]2[C@@H]3[C@H](N)C[C@H]4C[C@H](NCCCNCCCCNCCCN)CC[C@]4(C)[C@H]3CC[C@]12C.Cl.Cl.Cl.Cl.Cl
MIC (Staphylococcus aureus): 12.5 µg/mL | MIC (Escherichia coli): 50 µg/mL | MIC (Enterobacter cloacae): > 100 µg/mL | MIC (Streptococcus pyogenes [1]): 25 µg/mL | MIC (Streptococcus pyogenes [2]): 6.3 µg/mL | MIC (Pseudomonas aeruginosa [3]): 25 µg/mL | MIC (Pseudomonas aeruginosa [4]): 12.5 µg/mL | MIC (Salmonella typhimurium): > 100 µg/mL

C[C@H](CO)[C@H]1CC[C@H]2[C@@H]3[C@H](N)C[C@H]4C[C@@H](O)CC[C@]4(C)[C@H]3CC[C@]12C.Cl
MIC (Staphylococcus aureus): 12.5 µg/mL | MIC (Escherichia coli): 25 µg/mL | MIC (Enterobacter cloacae): > 100 µg/mL | MIC (Streptococcus pyogenes [1]): 12.5 µg/mL | MIC (Streptococcus pyogenes [2]): 6.3 µg/mL | MIC (Pseudomonas aeruginosa [3]): > 100 µg/mL | MIC (Pseudomonas aeruginosa [4]): > 100 µg/mL | MIC (Salmonella typhimurium): > 100 µg/mL

C[C@H](CO)[C@H]1CC[C@H]2[C@@H]3[C@H](O)C[C@H]4C[C@@H](NCCCNCCCCN)CC[C@]4(C)[C@H]3CC[C@]12C.Cl.Cl.Cl
MIC (Staphylococcus aureus): 12.5 µg/mL | MIC (Escherichia coli): 25 µg/mL | MIC (Enterobacter cloacae): 50 µg/mL | MIC (Streptococcus pyogenes [1]): 25 µg/mL | MIC (Streptococcus pyogenes [2]): 25 µg/mL | MIC (Pseudomonas aeruginosa [3]): 25 µg/mL | MIC (Pseudomonas aeruginosa [4]): 12.5 µg/mL | MIC (Salmonella typhimurium): 50 µg/mL

C[C@H](CO)[C@H]1CC[C@H]2[C@@H]3[C@H](N)C[C@H]4C[C@H](N)CC[C@]4(C)[C@H]3CC[C@]12C.Cl.Cl
MIC (Staphylococcus aureus): 3.1 µg/mL | MIC (Escherichia coli): 12.5 µg/mL | MIC (Enterobacter cloacae): 50 µg/mL | MIC (Streptococcus pyogenes [1]): 3.1 µg/mL | MIC (Streptococcus pyogenes [2]): 1.6 µg/mL | MIC (Pseudomonas aeruginosa [3]): 25 µg/mL | MIC (Pseudomonas aeruginosa [4]): 50 µg/mL | MIC (Salmonella typhimurium): 25 µg/mL

C[C@H](CO)[C@H]1CC[C@H]2[C@@H]3[C@H](F)C[C@H]4C[C@@H](NCCCNCCCCN)CC[C@]4(C)[C@H]3CC[C@]12C.Cl.Cl.Cl
MIC (Staphylococcus aureus): 6.3 µg/mL | MIC (Escherichia coli): 6.3 µg/mL | MIC (Enterobacter cloacae): > 100 µg/mL | MIC (Streptococcus pyogenes [1]): 6.3 µg/mL | MIC (Streptococcus pyogenes [2]): 6.3 µg/mL | MIC (Pseudomonas aeruginosa [3]): 3.1 µg/mL | MIC (Pseudomonas aeruginosa [4]): 6.3 µg/mL | MIC (Salmonella typhimurium): > 100 µg/mL

C[C@H](CO)[C@H]1CC[C@H]2[C@@H]3[C@H](N)C[C@H]4C[C@H](O)CC[C@]4(C)[C@H]3CC[C@]12C.Cl
MIC (Staphylococcus aureus): 3.1 µg/mL | Activity [5]: Active | MIC (Escherichia coli): 12.5 µg/mL | MIC (Enterobacter cloacae): > 100 µg/mL | MIC (Streptococcus pyogenes [1]): 6.3 µg/mL | MIC (Streptococcus pyogenes [2]): 3.1 µg/mL | MIC (Pseudomonas aeruginosa [3]): > 100 µg/mL | MIC (Pseudomonas aeruginosa [4]): > 100 µg/mL | MIC (Salmonella typhimurium): > 100 µg/mL

C[C@H](CO)[C@H]1CC[C@H]2[C@@H]3[C@H](N)C[C@H]4C[C@@H](NCCCNCCCCNCCCN)CC[C@]4(C)[C@H]3CC[C@]12C.Cl.Cl.Cl.Cl.Cl
MIC (Staphylococcus aureus): 6.3 µg/mL | MIC (Escherichia coli): 50 µg/mL | MIC (Enterobacter cloacae): > 100 µg/mL | MIC (Streptococcus pyogenes [1]): 25 µg/mL | MIC (Streptococcus pyogenes [2]): 3.1 µg/mL | MIC (Pseudomonas aeruginosa [3]): 50 µg/mL | MIC (Pseudomonas aeruginosa [4]): 6.3 µg/mL | MIC (Salmonella typhimurium): > 100 µg/mL

C[C@H](CO)[C@H]1CC[C@H]2[C@@H]3[C@H](N)C[C@H]4C[C@@H](N)CC[C@]4(C)[C@H]3CC[C@]12C.Cl.Cl
MIC (Staphylococcus aureus): 6.3 µg/mL | MIC (Escherichia coli): 25 µg/mL | MIC (Enterobacter cloacae): 50 µg/mL | MIC (Streptococcus pyogenes [1]): 6.3 µg/mL | MIC (Streptococcus pyogenes [2]): 6.3 µg/mL | MIC (Pseudomonas aeruginosa [3]): 50 µg/mL | MIC (Pseudomonas aeruginosa [4]): > 100 µg/mL | MIC (Salmonella typhimurium): 50 µg/mL
